Data reported in the supplement of paper PMC11061612.

Assays:
SG3199 = compound: CC1=CN2[C@@H](C1)C=NC3=CC(=C(C=C3C2=O)OC)OCCCCCOC4=C(C=C5C(=C4)N=C[C@@H]6CC(=CN6C5=O)C)OC [SG3199]; conditions: max 0.001 µM
Method in brief: (§1)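 After 24 hours at 37°C and 5% CO2 in 1536-well plates holding 7.5 μl of DMEM/F12 or RPMI with 10% FBS, cancer cell lines were dosed for 72 hours, with final DMSO typically 0.2%. Viability came from CellTiter-Glo 2.0 luminescence, scaled between the means of blank wells and DMSO wells. A non-linear mixed effects model fitted a two-parameter logistic curve to each dose response to give the single-agent IC50.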

Etoposide = compound: COc1cc([C@@H]2c3cc4c(cc3[C@@H](O[C@@H]3O[C@@H]5CO[C@@H](C)O[C@H]5[C@H](O)[C@H]3O)[C@H]3COC(=O)[C@H]23)OCO4)cc(OC)c1O [Etoposide]; conditions: max 10 µM
Method in brief: as §1

Carboplatin = compound: C1CC(C1)(C(=O)[O-])C(=O)[O-].N.N.[Pt+2] [Carboplatin]; conditions: max 10 µM
Method in brief: as §1

AZD4320 = compound: CN(CC[C@H](CSC1=CC=CC=C1)NC2=C(C=C(C=C2)S(=O)(=O)NC(=O)C3=CC=C(C=C3)N4CCC(CC4)[C@H](C5=CC=CC=C5C6=CC=C(C=C6)Cl)O)S(=O)(=O)C(F)(F)F)CCO [AZD4320]; conditions: max 1 µM
Method in brief: as §1

Palbociclib = compound: CC(=O)c1c(C)c2cnc(Nc3ccc(N4CCNCC4)cn3)nc2n(C2CCCC2)c1=O [Palbociclib]; conditions: max 10 µM
Method in brief: as §1

Savolitinib = compound: C[C@@H](c1ccc2nccn2c1)n1nnc2ncc(-c3cnn(C)c3)nc21 [Savolitinib]; conditions: max 1 µM
Method in brief: as §1

Crizotinib = compound: C[C@@H](Oc1cc(-c2cnn(C3CCNCC3)c2)cnc1N)c1c(Cl)ccc(F)c1Cl [Crizotinib]; conditions: max 10 µM
Method in brief: as §1

Alisertib = compound: COc1cc(Nc2ncc3c(n2)-c2ccc(Cl)cc2C(c2c(F)cccc2OC)=NC3)ccc1C(=O)O [Alisertib]; conditions: max 10 µM
Method in brief: as §1

AZD5991 = compound: Cc1c2c(nn1C)CSCc1cc(n(C)n1)CSc1cc(c3ccccc3c1)OCCCc1c(C(=O)O)n(C)c3c-2c(Cl)ccc13 [AZD5991]; conditions: max 1 µM
Method in brief: as §1

Olaparib = compound: O=C(c1cc(Cc2n[nH]c(=O)c3ccccc23)ccc1F)N1CCN(C(=O)C2CC2)CC1 [Olaparib]; conditions: max 10 µM
Method in brief: as §1

Taselisib = compound: Cc1nc(-c2cn3c(n2)-c2ccc(-c4cnn(C(C)(C)C(N)=O)c4)cc2OCC3)n(C(C)C)n1 [Taselisib]; conditions: max 10 µM
Method in brief: as §1

Venetoclax = compound: CC1(C)CCC(CN2CCN(c3ccc(C(=O)NS(=O)(=O)c4ccc(NCC5CCOCC5)c([N+](=O)[O-])c4)c(Oc4cnc5[nH]ccc5c4)c3)CC2)=C(c2ccc(Cl)cc2)C1 [Venetoclax]; conditions: max 1 µM
Method in brief: as §1

AZD5363 = compound: C1CN(CCC1(C(=O)N[C@@H](CCO)C2=CC=C(C=C2)Cl)N)C3=NC=NC4=C3C=CN4 [AZD5363]; conditions: max 10 µM
Method in brief: as §1

AZD8186 = compound: C[C@@H](Nc1cc(F)cc(F)c1)c1cc(C(=O)N(C)C)cc2c(=O)cc(N3CCOCC3)oc12 [AZD8186]; conditions: max 10 µM
Method in brief: as §1

AZD0156 = compound: CN(C)CCCOc1ccc(-c2ccc3ncc4c(c3c2)n(C2CCOCC2)c(=O)n4C)cn1 [AZD0156]; conditions: max 3 µM
Method in brief: as §1

AZD5153 = compound: COc1nnc2ccc(N3CCC(c4ccc(OCCN5CCN(C)C(=O)[C@H]5C)cc4)CC3)nn12 [AZD5153]; conditions: max 1 µM
Method in brief: as §1

Lapatinib = compound: CS(=O)(=O)CCNCc1ccc(-c2ccc3ncnc(Nc4ccc(OCc5cccc(F)c5)c(Cl)c4)c3c2)o1 [Lapatinib]; conditions: max 10 µM
Method in brief: as §1

Paclitaxel = compound: CC(=O)O[C@H]1C(=O)[C@@]2(C)[C@H]([C@H](OC(=O)c3ccccc3)[C@]3(O)C[C@H](OC(=O)[C@H](O)[C@@H](NC(=O)c4ccccc4)c4ccccc4)C(C)=C1C3(C)C)[C@]1(OC(C)=O)CO[C@@H]1C[C@@H]2O [Paclitaxel]; conditions: max 3 µM
Method in brief: as §1

SRA737 = compound: N#Cc1cnc(Nc2cc(NC[C@H]3CNCCO3)c(C(F)(F)F)cn2)cn1 [SRA737]; conditions: max 10 µM
Method in brief: as §1

Doxorubicin = compound: COc1cccc2c1C(=O)c1c(O)c3c(c(O)c1C2=O)C[C@@](O)(C(=O)CO)C[C@@H]3O[C@H]1C[C@H](N)[C@H](O)[C@H](C)O1 [Doxorubicin]; conditions: max 1 µM
Method in brief: as §1

Trametinib = compound: CC(=O)Nc1cccc(-n2c(=O)n(C3CC3)c(=O)c3c(Nc4ccc(I)cc4F)n(C)c(=O)c(C)c32)c1 [Trametinib]; conditions: max 1 µM
Method in brief: as §1

AZD1390 = compound: CC(C)n1c(=O)n(C)c2cnc3cc(F)c(-c4ccc(OCCCN5CCCCC5)nc4)cc3c21 [AZD1390]; conditions: max 0.3 µM
Method in brief: as §1

AZD6738 = compound: C[C@@H]1COCCN1C2=NC(=NC(=C2)C3(CC3)[S@](=N)(=O)C)C4=C5C=CNC5=NC=C4 [AZD6738]; conditions: max 10 µM
Method in brief: as §1

Gemcitabine = compound: Nc1ccn([C@@H]2O[C@H](CO)[C@@H](O)C2(F)F)c(=O)n1 [Gemcitabine]; conditions: max 0.3 µM
Method in brief: as §1

[1] = compound: O=C(Nc1ccc2[nH]nc(-c3ccncc3)c2c1)[C@@H]1CCN(CC(=O)N2CCN(c3ccc(-c4ncccn4)cc3)CC2)C1; conditions: max 5 µM
Method in brief: as §1

MK-2206 = compound: NC1(c2ccc(-c3nc4ccn5c(=O)[nH]nc5c4cc3-c3ccccc3)cc2)CCC1 [MK-2206]; conditions: max 10 µM
Method in brief: as §1

SN-38 = compound: CCc1c2c(nc3ccc(O)cc13)-c1cc3c(c(=O)n1C2)COC(=O)[C@]3(O)CC [SN-38]; conditions: max 0.3 µM
Method in brief: as §1

AZD7648 = compound: Cc1cc2ncnn2cc1Nc1ncc2c(n1)n(C1CCOCC1)c(=O)n2C [AZD7648]; conditions: max 10 µM
Method in brief: as §1

Gefitinib = compound: COc1cc2ncnc(Nc3ccc(F)c(Cl)c3)c2cc1OCCCN1CCOCC1 [Gefitinib]; conditions: max 10 µM
Method in brief: as §1

AZD1775 = compound: C=CCn1c(=O)c2cnc(Nc3ccc(N4CCN(C)CC4)cc3)nc2n1-c1cccc(C(C)(C)O)n1 [AZD1775]; conditions: max 3 µM
Method in brief: as §1

5-Fluorouracil = compound: O=c1[nH]cc(F)c(=O)[nH]1 [5-Fluorouracil]; conditions: max 20 µM
Method in brief: as §1

Selumetinib = compound: Cn1cnc2c(F)c(Nc3ccc(Br)cc3Cl)c(C(=O)NOCCO)cc21 [Selumetinib]; conditions: max 10 µM
Method in brief: as §1

AZD2811 = compound: CCN(CCO)CCCOc1ccc2c(Nc3cc(CC(=O)Nc4cccc(F)c4)[nH]n3)ncnc2c1 [AZD2811]; conditions: max 1 µM
Method in brief: as §1

Prexasertib = compound: COc1cccc(OCCCN)c1-c1cc(Nc2cnc(C#N)cn2)n[nH]1 [Prexasertib]; conditions: max 1 µM
Method in brief: as §1

Dasatinib = compound: CC1=C(C(=CC=C1)Cl)NC(=O)C2=CN=C(S2)NC3=CC(=NC(=N3)C)N4CCN(CC4)CCO [Dasatinib]; conditions: max 2 µM
Method in brief: as §1

| Cell Line | IC50, cell viability 72 h (SG3199) [nM] | IC50, cell viability 72 h (Etoposide) [nM] | IC50, cell viability 72 h (Carboplatin) [nM] | IC50, cell viability 72 h (AZD4320) [nM] | IC50, cell viability 72 h (Palbociclib) [nM] | IC50, cell viability 72 h (Savolitinib) [nM] | IC50, cell viability 72 h (Crizotinib) [nM] | IC50, cell viability 72 h (Alisertib) [nM] | IC50, cell viability 72 h (AZD5991) [nM] | IC50, cell viability 72 h (Olaparib) [nM] | IC50, cell viability 72 h (Taselisib) [nM] | IC50, cell viability 72 h (Venetoclax) [nM] | IC50, cell viability 72 h (AZD5363) [nM] | IC50, cell viability 72 h (AZD8186) [nM] | IC50, cell viability 72 h (AZD0156) [nM] | IC50, cell viability 72 h (AZD5153) [nM] | IC50, cell viability 72 h (Lapatinib) [nM] | IC50, cell viability 72 h (Paclitaxel) [nM] | IC50, cell viability 72 h (SRA737) [nM] | IC50, cell viability 72 h (Doxorubicin) [nM] | IC50, cell viability 72 h (Trametinib) [nM] | IC50, cell viability 72 h (AZD1390) [nM] | IC50, cell viability 72 h (AZD6738) [nM] | IC50, cell viability 72 h (Gemcitabine) [nM] | IC50, cell viability 72 h [1] [nM] | IC50, cell viability 72 h (MK-2206) [nM] | IC50, cell viability 72 h (SN-38) [nM] | IC50, cell viability 72 h (AZD7648) [nM] | IC50, cell viability 72 h (Gefitinib) [nM] | IC50, cell viability 72 h (AZD1775) [nM] | IC50, cell viability 72 h (5-Fluorouracil) [nM] | IC50, cell viability 72 h (Selumetinib) [nM] | IC50, cell viability 72 h (AZD2811) [nM] | IC50, cell viability 72 h (Prexasertib) [nM] | IC50, cell viability 72 h (Dasatinib) [nM] |
| --- | --- | --- | --- | --- | --- | --- | --- | --- | --- | --- | --- | --- | --- | --- | --- | --- | --- | --- | --- | --- | --- | --- | --- | --- | --- | --- | --- | --- | --- | --- | --- | --- | --- | --- | --- |
| NCI-H1993 (Lung Adenocarcinoma) | > 1 | 6590 | > 10000 | 383 | > 10000 | 22 | 309 | > 10000 | > 1000 | > 10000 | 4520 | > 1000 | 5220 | > 10000 | > 3000 | > 1000 | > 10000 | 11.2 | > 10000 | 249 | 89.4 | > 300 | > 10000 | 15.5 | 3250 | 4430 | 262 | > 10000 | > 10000 | 1340 | 9360 | 9990 | > 1000 | 62.5 | > 2000 |
| SK-N-AS (Neuroblastoma) | > 1 | > 10000 | > 10000 | > 1000 | > 10000 | > 1000 | > 10000 | 780 | > 1000 | > 10000 | > 10000 | > 1000 | > 10000 | > 10000 | > 3000 | > 1000 | > 10000 | 299 | 8030 | > 1000 | 126 | > 300 | 2940 | 232 | > 5000 | > 10000 | 81.2 | > 10000 | > 10000 | 1000 | > 20000 | > 10000 | > 1000 | 10 | > 2000 |
| SNU-387 (Hepatocellular Carcinoma) | > 1 | > 10000 | > 10000 | > 1000 | > 10000 | > 1000 | > 10000 | > 10000 | > 1000 | > 10000 | > 10000 | > 1000 | > 10000 | 8360 | > 3000 | > 1000 | > 10000 | 27.4 | > 10000 | > 1000 | 583 | > 300 | > 10000 | > 300 | > 5000 | > 10000 | > 300 | > 10000 | > 10000 | 1030 | > 20000 | > 10000 | > 1000 | 555 | > 2000 |
| Ca-Ski (Cervical Carcinoma) | > 1 | 8850 | > 10000 | > 1000 | > 10000 | > 1000 | > 10000 | 8320 | > 1000 | > 10000 | 2220 | > 1000 | > 10000 | > 10000 | > 3000 | 867 | > 10000 | 23.8 | > 10000 | 355 | > 1000 | > 300 | > 10000 | 222 | > 5000 | > 10000 | 11.7 | > 10000 | > 10000 | 657 | > 20000 | > 10000 | > 1000 | 83.8 | 558 |
| COLO-668 (Small Cell Lung Carcinoma) | > 1 | > 10000 | > 10000 | 319 | > 10000 | > 1000 | > 10000 | > 10000 | > 1000 | > 10000 | 5340 | > 1000 | > 10000 | > 10000 | > 3000 | > 1000 | > 10000 | > 3000 | > 10000 | 329 | 408 | > 300 | 8160 | 41.3 | 4480 | > 10000 | 5.32 | > 10000 | > 10000 | > 3000 | > 20000 | > 10000 | > 1000 | 63.7 | > 2000 |
